Assay results as given in US20170000784A1, “Autophagy Inhibitors” (priority 2013, published 2017).
Where two headings read alike, the source gives them in different places.

Experiments:
Type in all cases: cell-based
[1] = test system: lysosomal protease cathepsin B in U2OS cells; assay: Immunoblot of active cathepsin B; conditions: 3 μM and 30 μM for 6 hours; effects stated at 30 μM (CQ: at either dose)
Procedure: For Western blotting, U2OS cells were seeded in 10 cm plates in 5A McCoy's with 10% FBS at 1×10^6 cells per plate. All melanoma lines were seeded in 10 cm plates in RPMI 1640 with 10% FBS at 1×10^6 cells per plate. After 24 hours, cells were treated with CQ, QN, Example 27, or Example 7 in a dose response of 0.3 μM, 1 μM, 3 μM, 10 μM, and 30 μM for three hours. A375 were treated with PLX-4032 (Selleck Chemicals, S1267) at 10 nM, 100 nM, and 1 μM for three hours with and without CQ, QN, Example 7, and Example 27 at 3 μM and 30 μM. After treatment, cells were lysed [10 mM KPO4, 1 mM EDTA, 10 mM MgCl2, 5 mM EGTA, 50 mM bis-glycerophosphate, 0.5% NP40, 0.1% Brij35, 0.1% sodium deoxycholate, 1 mM NaVO4, 5 mM NaF, 2 mM DTT, and complete protease inhibitors (Sigma, P8340-5 mL)] and 50 μg of protein was resolved by SDS-PAGE. Proteins were transferred to PVDF membranes and probed with primary antibodies [LC3 (Sigma, L7543-200UL), anti-α-tubulin (Sigma, T6199), cathepsin B (Santa Cruz, sc-13985)] for 16 hours at 4° C. followed by a secondary antibody [HRP-linked rabbit or mouse IgG (GE Healthcare, NA934 or NA931) or Odyssey IRDye 680CW Goat anti-rabbit IgG (LI-COR, 926-32221) or IRDye 800CW Goat anti-mouse IgG (LI-COR, 926-32210)] for 1 hour at room temperature. Proteins were detected with enhanced chemiluminescence or using the Odyssey machine and quantified (FIGS. 12, 15, 16, 7 and 11).
Deacidification of lysosomes would be expected to not only prevent the maturation and turnover of the lysosomes from early to late, but also affect the functionality of lysosomal enzymes and consequently the turnover of lysosomal constituents. To determine if lysosomal activity was inhibited, lysosomal protease cathepsin B activity was measured by immunoblotting (FIG. 12C). Lysates were harvested from cells and treated with CQ, QN, Example 7, and Example 27 at both 3 μM and 30 μM for 6 hours.

[2] = test system: UACC-91 melanoma cell line; assay: Cell viability (IC50) screen, CellTiter Glo, UACC-91; conditions: Homo sapiens
Procedure: (§1) U2OS cells were seeded at 500 cells per well in 5A McCoy's with 10% FBS in 96-well clear bottom, black-walled tissue culture plates. All melanoma cell lines (A375, UACC-91, UACC-257, UACC-502, UACC-903, UACC-1308, UACC-1940, UACC-2534, and UACC-3291) were seeded at 5,000 cells per well in RPMI 1640 with 10% FBS in 96-well clear bottom, black-walled tissue culture plates. After 24 hour incubation, cells were treated with VATG compounds in triplicate with a 10-point half log dose response from […] for 24 and 48 hours. Medium was removed and 2× CellTiter Glo (Promega, G7571) reagent mixed 1:1 with Opti-MEM (Invitrogen, 31985062) was added at 100 μL per well and incubated at room temperature for 15 minutes while rocking. 75 μL per well was moved to a white-walled 96-well plate and luminescence quantified using the 96 LUM program on an EnVision plate reader (PerkinElmer) and exported for analysis. All triplicate data points were averaged and luminescent readings for each treatment were normalized to vehicle control for change in viability. Dose response curves were input into SigmaPlot for IC50 calculations (Systat Software Inc).

[3] = test system: UACC-1940 melanoma cell line; assay: Cell viability (IC50) screen, CellTiter Glo, UACC-1940; conditions: Homo sapiens
Procedure: as §1

[4] = test system: U2OS cells stably expressing tfLC3; conditions: for autophagy inhibition at 3 μM: FIG. 10B
Procedure: U2OS cells stably expressing tfLC3 were seeded at 50,000 cells per well in 5A McCoy's with 10% FBS on number 1.5 coverglass in 24-well tissue culture dishes. After 24 hours, cells were treated with known autophagy controls rapamycin [100 nM] (Millipore, 553210-10 mg), bafilomycin A1 [100 nM] (AG Scientific, B-1183), AZD-8055 [100 nM](Selleck Chemicals, S1555), and CQ [50 μM] as well as autophagy inhibitors (CQ, QN, Example 7, and Example 27) at doses of 0.1 μM, 0.25 μM, 0.5 μM, 1 μM, 5 μM, 15 μM, 25 μM, and 50 μM for three hours. Cells were washed with 1×PBS, fixed with 3.7% formaldehyde, and nuclei were stained with Hoechst 33342 (2 μg/mL). Coverglass was inverted onto microscope slides using mounting gel. Cells were imaged using a 60× oil-immersion objective on a Nikon Eclipse Ti fluorescent microscope and 10 images at each dose were taken for quantification. Image processing and quantification were completed with the Nikon NIS Elements software. To quantify, images were deconvolved using a 2D blind deconvolution function with one iteration and settings of normal cell thickness and normal noise level. Regions of interest (ROI) were drawn around the edges of each cell. Intensity thresholds were set to include all pixels equal to or greater than the intensity above the mean background fluorescence using the separation feature and restrictions set for puncta size (FIG. 9). Objects within the threshold for each ROI were quantified using an automated object count function and exported for analysis. Although other parameters were also collected, the mean intensity of the objects was averaged between the 10 images of each dose, or approximately 50 cells (FIGS. 9B and 9C). Representative images were chosen for each dose and the lookup table (LUT) brightness' were set based on the mean intensity of the DMSO control (FIGS. 8A and 10A). The mean intensity of each image was divided by the mean intensity of the DMSO control to control for brightness and the LUTs were adjusted by the percent difference to avoid background and for consistent visualization. All other settings (gain, exposure time, and lamp strength) were kept the same across all conditions. […] Mean intensity was further chosen for quantification as it accurately represents both the increase in puncta number and area when the accumulation of autophagosomes partially fuse (FIG. 9C, 9D). Quantification of the red channel (RFP-LC3 puncta) was performed to determine the total autophagic vesicle population (both autophagosomes and autolysosomes).
Autophagy inhibition can be measured by fluorescent microscopy using cells expressing a tandem fluorescent (RFP-GFP) labeled LC3 sensor (tfLC3). Upon autophagosome nucleation, LC3 is localized to the autophagic membrane and the overlapping GFP and RFP fluorescence appears as yellow puncta. After the autophagosome matures, it fuses with the lysosome, forming an autolysosome. The GFP in this LC3 sensor is pH labile and becomes quenched by the acidic environment of the autolysosome. However, the RFP remains stable; therefore, autolysosomes are indicated by red puncta. Accordingly, when autophagy is inhibited at the final stage (completion), the abundance of yellow puncta is expected to increase proportionally to the level of autophagy inhibition.
Cells were then fixed and imaged by fluorescent microscopy.

[5] = UACC-91 cell viability, CellTiter Glo, read-out: IC50
[6] = UACC-1940 cell viability, CellTiter Glo, read-out: IC50

COc1ccc2nc3cc(Cl)ccc3c(NCCCCN3CCN(C)CC3)c2c1 [Example 7, 6-Chloro-2-methoxy-N-(4-(4-methylpiperazin-1-yl)butyl)acridin-9-amine]
active cathepsin B [1]: nearly complete loss
IC50 [2, 5]: 0.5 µM
IC50 [3, 6]: 4 µM
Potency (EC/ECCQ) [4]: 150
fold more potent at autophagy inhibition than QN [4]: 2
autophagy inhibition at 3 μM [4]: inhibit autophagy

CN1CCN(CCNc2c3c(nc4cc(Cl)ccc24)CCCC3)CC1 [Example 27, 6-Chloro-N-(2-(4-methylpiperazin-1-yl)ethyl)-1,2,3,4-tetrahydroacridin-9-amine]
active cathepsin B [1]: significant decrease
IC50 [2]: 22.2 µM
IC50 [3]: 21.6 µM
autophagy inhibition at 3 μM [4]: inhibit autophagy
Potency (EC/ECCQ) ([4]; relative potency score versus chloroquine, greater than one = more potent than CQ): 3

CCN(CC)CCCC(C)Nc1c2ccc(Cl)cc2nc2ccc(OC)cc12 (stereo not drawn) [Quinacrine, quinacrine, reference compound]
active cathepsin B [1]: nearly complete loss
IC50 [2, 5]: 2.9 µM
IC50 [3, 6]: 1.9 µM
Potency (EC/ECCQ) [4]: ~60
autophagy inhibition at 3 μM [4]: inhibit autophagy
concentration giving a significant increase in mean intensity of autophagic puncta ([4]; U2OS-tfLC3, ten-point dose response, FIG. 8B): 0.25 µM
Effective Concentration (EC) ([4]; concentration with statistically significant increase in puncta number over vehicle control, three hours): 0.25 µM
